Reference: ChEMBL document CHEMBL4765272, “Design, synthesis and biological evaluation of tyrosine derivatives as Mcl-1 inhibitors” (Eur J Med Chem, 2020)

Experiments:
[1] = Inhibition of 5-FAM-BH3 peptide binding to N-terminal His8-tagged human MCL-1 (209 to 327 residues)/mouse MCL-1 (152 to 189 residues) expressed in Escherichia coli BL21 (DE3) by fluorescence polarization assay
[2] = target: Bcl-2-like protein 1 (Homo sapiens) (UniProt Q07817); assay: Inhibition of 5-FAM-BH3 peptide binding to human N-terminal GST-tagged BCL-XL (1 to 212 residues) expressed in Escherichia coli BL21 (DE3) at 100 uM by fluorescence polarization assay relative to control
Bcl-2-like protein 1 (Homo sapiens), sequence (Q07817 whole entry, the tested form may be a part, canonical isoform): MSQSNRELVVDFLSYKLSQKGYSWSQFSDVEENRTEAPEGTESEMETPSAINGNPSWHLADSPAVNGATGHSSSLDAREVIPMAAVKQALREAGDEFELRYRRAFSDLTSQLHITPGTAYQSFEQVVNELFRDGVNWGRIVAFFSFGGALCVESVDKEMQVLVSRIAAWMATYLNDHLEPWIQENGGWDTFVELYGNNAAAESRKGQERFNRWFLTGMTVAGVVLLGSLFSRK

[3] = Inhibition of 5-FAM-BH3 peptide binding to human N-terminal GST-tagged BCL-2 (1 to 34 residues)/BCL-XL (29 to 44 residues)/BCL-2 isoform 2 (92 to 207 residues) expressed in Escherichia coli BL21 (DE3) by fluorescence polarization assay
[4] = Antiproliferative activity against human KM3 cells incubated for 72 hrs by MTT assay; format: functional, cell-based; conditions: KM3, 72 h
HepG2 [5] = assay: Antiproliferative activity against human HepG2 cells incubated for 72 hrs by MTT assay; format: functional, cell-based; conditions: HepG2, 72 h
RPMI-8226 = assay: Antiproliferative activity against human RPMI-8226 cells incubated for 72 hrs by MTT assay; format: functional, cell-based; conditions: RPMI-8226, 72 h
Jurkat = assay: Antiproliferative activity against human Jurkat cells incubated for 72 hrs by MTT assay; format: functional, cell-based
MOLT-4 = assay: Antiproliferative activity against human MOLT-4 cells incubated for 72 hrs by MTT assay; format: functional, cell-based; conditions: MOLT-4, 72 h
PC-3 = assay: Antiproliferative activity against human PC-3 cells incubated for 72 hrs by MTT assay; format: functional, cell-based; conditions: PC-3, 72 h
NCI-H1299 = assay: Antiproliferative activity against human NCI-H1299 cells incubated for 72 hrs by MTT assay; format: functional, cell-based; conditions: NCI-H1299, 72 h
KM3 = assay: Induction of apoptosis in human KM3 cells measured after 48 hrs by Annexin V-FITC/propidium iodide staining based flow cytometry; format: functional, cell-based
HepG2 [6] = assay: Induction of apoptosis in human HepG2 cells measured after 48 hrs by Annexin V-FITC/propidium iodide staining based flow cytometry; format: functional, cell-based
[7] = Induction of apoptosis in human KM3 cells assessed as viable cells at 10 uM measured after 48 hrs by Annexin V-FITC/propidium iodide staining based flow cytometry (reference value: 96.24%); format: functional; conditions: read-out: Activity
[8] = Induction of apoptosis in human KM3 cells assessed as early apoptotic cells at 10 uM measured after 48 hrs by Annexin V-FITC/propidium iodide staining based flow cytometry (reference value: 2.18%); format: functional
[9] = Induction of apoptosis in human KM3 cells assessed as late apoptotic cells at 10 uM measured after 48 hrs by Annexin V-FITC/propidium iodide staining based flow cytometry (reference value: 1.15%); format: functional
[10] = Induction of apoptosis in human KM3 cells assessed as necrotic cells at 10 uM measured after 48 hrs by Annexin V-FITC/propidium iodide staining based flow cytometry (reference value: 0.42%); format: functional
[11] = Induction of apoptosis in human KM3 cells assessed as viable cells at 20 uM measured after 48 hrs by Annexin V-FITC/propidium iodide staining based flow cytometry (reference value: 96.24%); format: functional; conditions: read-out: Activity
[12] = Induction of apoptosis in human KM3 cells assessed as early apoptotic cells at 20 uM measured after 48 hrs by Annexin V-FITC/propidium iodide staining based flow cytometry (reference value: 2.18%); format: functional
[13] = Induction of apoptosis in human KM3 cells assessed as late apoptotic cells at 20 uM measured after 48 hrs by Annexin V-FITC/propidium iodide staining based flow cytometry (reference value: 1.15%); format: functional
[14] = Induction of apoptosis in human KM3 cells assessed as necrotic cells at 20 uM measured after 48 hrs by Annexin V-FITC/propidium iodide staining based flow cytometry (reference value: 0.42%); format: functional
HepG2 [15] = assay: Induction of apoptosis in human HepG2 cells assessed as viable cells at 10 uM measured after 48 hrs by Annexin V-FITC/propidium iodide staining based flow cytometry (reference value: 96.84%); format: functional; conditions: read-out: Activity
HepG2 [16] = assay: Induction of apoptosis in human HepG2 cells assessed as early apoptotic cells at 10 uM measured after 48 hrs by Annexin V-FITC/propidium iodide staining based flow cytometry (reference value: 0.71%); format: functional
HepG2 [17] = assay: Induction of apoptosis in human HepG2 cells assessed as late apoptotic cells at 10 uM measured after 48 hrs by Annexin V-FITC/propidium iodide staining based flow cytometry (reference value: 1.93%); format: functional
HepG2 [18] = assay: Induction of apoptosis in human HepG2 cells assessed as necrotic cells at 10 uM measured after 48 hrs by Annexin V-FITC/propidium iodide staining based flow cytometry (reference value: 0.52%); format: functional
HepG2 [19] = assay: Induction of apoptosis in human HepG2 cells assessed as viable cells at 20 uM measured after 48 hrs by Annexin V-FITC/propidium iodide staining based flow cytometry (reference value: 96.84%); format: functional; conditions: read-out: Activity
HepG2 [20] = assay: Induction of apoptosis in human HepG2 cells assessed as early apoptotic cells at 20 uM measured after 48 hrs by Annexin V-FITC/propidium iodide staining based flow cytometry (reference value: 0.71%); format: functional
HepG2 [21] = assay: Induction of apoptosis in human HepG2 cells assessed as late apoptotic cells at 20 uM measured after 48 hrs by Annexin V-FITC/propidium iodide staining based flow cytometry (reference value: 1.93%); format: functional
HepG2 [22] = assay: Induction of apoptosis in human HepG2 cells assessed as necrotic cells at 20 uM measured after 48 hrs by Annexin V-FITC/propidium iodide staining based flow cytometry (reference value: 0.52%); format: functional

CC(C)(C)OC(=O)N[C@@H](Cc1ccc(OCCOc2ccccc2)cc1)C(=O)NS(=O)(=O)c1ccc(Cl)c([N+](=O)[O-])c1
Ki [1]: > 15000 nM

Cc1ccc(CC(=O)N[C@@H](Cc2ccc(OCCOc3cccc4ccccc34)cc2)C(=O)NS(=O)(=O)c2ccc(NCCc3ccccc3)c([N+](=O)[O-])c2)cc1
Ki [1]: 470 nM

Cc1cc(OCCOc2ccc(C[C@H](NC(=O)OC(C)(C)C)C(=O)NS(=O)(=O)c3ccc(Cl)c([N+](=O)[O-])c3)cc2)cc(C)c1Cl
Ki [1]: 700 nM

Cc1ccc(CC(=O)N[C@@H](Cc2ccc(OCCOc3cccc4ccccc34)cc2)C(=O)NS(=O)(=O)c2ccc(NCCCc3ccccc3)c([N+](=O)[O-])c2)cc1
Ki [1]: 440 nM

COc1ccc(CC(=O)N[C@@H](Cc2ccc(OCCOc3cccc4ccccc34)cc2)C(=O)NS(=O)(=O)c2ccc(NCCCc3ccccc3)c([N+](=O)[O-])c2)cc1
Ki [1]: 500 nM

Cc1cc(OCCOc2ccc(C[C@H](NC(=O)OC(C)(C)C)C(=O)NS(=O)(=O)c3ccc(NCCCc4ccccc4)c([N+](=O)[O-])c3)cc2)cc(C)c1Cl
Ki [1]: 450 nM

CC(C)(C)OC(=O)N[C@@H](Cc1ccc(OCCOc2cccc3ccccc23)cc1)C(=O)NS(=O)(=O)c1ccc(Cl)c([N+](=O)[O-])c1
Ki [1]: 5000 nM

Cc1ccc(CC(=O)N[C@@H](Cc2ccc(OCCOc3ccc(Cl)cc3)cc2)C(=O)NS(=O)(=O)c2ccc(Cl)c([N+](=O)[O-])c2)cc1
Ki [1]: 1600 nM

Cc1cc(OCCCCOc2ccc(C[C@H](NC(=O)OC(C)(C)C)C(=O)NS(=O)(=O)c3ccc(Cl)c([N+](=O)[O-])c3)cc2)cc(C)c1Cl
Ki [1]: 710 nM

Cc1ccc(CC(=O)N[C@@H](Cc2cc(I)c(OCCOc3cccc4ccccc34)c(I)c2)C(=O)NS(=O)(=O)c2ccc(Cl)c([N+](=O)[O-])c2)cc1
Ki [1]: 570 nM

Cc1ccc(CC(=O)N[C@@H](Cc2ccc(OCCOc3cccc4ccccc34)cc2)C(=O)NS(=O)(=O)c2ccc(NCc3ccccc3)c([N+](=O)[O-])c2)cc1
Ki [1]: 760 nM

O=C(Cc1ccc(Cl)cc1)N[C@@H](Cc1ccc(OCCOc2cccc3ccccc23)cc1)C(=O)NS(=O)(=O)c1ccc(Cl)c([N+](=O)[O-])c1
Ki [1]: 510 nM

Cc1ccc(CC(=O)N[C@@H](Cc2ccc(OCCOc3cc(C)c(Cl)c(C)c3)cc2)C(=O)NS(=O)(=O)c2ccc(NCCOc3ccccc3)c([N+](=O)[O-])c2)cc1
Ki [1]: 340 nM

Cc1cc(OCCCOc2ccc(C[C@H](NC(=O)OC(C)(C)C)C(=O)NS(=O)(=O)c3ccc(Cl)c([N+](=O)[O-])c3)cc2)cc(C)c1Cl
Ki [1]: 660 nM

Cc1cc(OCCOc2ccc(C[C@H](NC(=O)c3ccccc3)C(=O)NS(=O)(=O)c3ccc(NCCCc4ccccc4)c([N+](=O)[O-])c3)cc2)cc(C)c1Cl
Ki [1]: 270 nM | inhibition [2]: > 50% | Ki [3]: 1700 nM | IC50 [4]: 7460 nM | IC50 (HepG2 [5]): 11700 nM | IC50 (RPMI-8226): 7610 nM | IC50 (Jurkat): 13000 nM | IC50 (MOLT-4): 13900 nM | IC50 (PC-3): 14300 nM | IC50 (NCI-H1299): 12900 nM | Activity (KM3): Dose-dependent effect | Activity (HepG2 [6]): Dose-dependent effect | viability at 10 µM [7]: 83% | Activity [8]: 10.52% | Activity [9]: 5.52% | Activity [10]: 1.01% | viability at 20 µM [11]: 11.9% | Activity [12]: 17.71% | Activity [13]: 68.68% | Activity [14]: 1.73% | viability at 10 µM (HepG2 [15]): 82.3% | Activity (HepG2 [16]): 0.87% | Activity (HepG2 [17]): 11.72% | Activity (HepG2 [18]): 5.13% | viability at 20 µM (HepG2 [19]): 18.5% | Activity (HepG2 [20]): 2.25% | Activity (HepG2 [21]): 75.13% | Activity (HepG2 [22]): 4.13%

CC(C)(C)OC(=O)N[C@@H](Cc1ccc(OCCOc2cccc3ccccc23)cc1)C(=O)NS(=O)(=O)c1ccc(NCCc2ccccc2)c([N+](=O)[O-])c1
Ki [1]: 420 nM

CC(C)(C)OC(=O)N[C@@H](Cc1cc(Cl)c(OCCOc2cccc3ccccc23)c(Cl)c1)C(=O)NS(=O)(=O)c1ccc(Cl)c([N+](=O)[O-])c1
Ki [1]: 1000 nM

Cc1cc(OCCOc2ccc(C[C@H](NC(=O)OC(C)(C)C)C(=O)NS(=O)(=O)c3ccc(NCCOc4ccccc4)c([N+](=O)[O-])c3)cc2)cc(C)c1Cl
Ki [1]: 670 nM

Cc1ccc(CC(=O)N[C@@H](Cc2ccc(OCCOc3cccc4ccccc34)cc2)C(=O)NS(=O)(=O)c2ccc(Cl)c([N+](=O)[O-])c2)cc1
Ki [1]: 590 nM

Cc1ccc(CC(=O)N[C@@H](Cc2cc(Cl)c(OCCOc3cccc4ccccc34)c(Cl)c2)C(=O)NS(=O)(=O)c2ccc(Cl)c([N+](=O)[O-])c2)cc1
Ki [1]: 720 nM

CC(C)(C)OC(=O)N[C@@H](Cc1ccc(OCCOc2ccc(Cl)cc2)cc1)C(=O)NS(=O)(=O)c1ccc(Cl)c([N+](=O)[O-])c1
Ki [1]: 4800 nM

Cc1ccc(CC(=O)N[C@@H](Cc2cc(Br)c(OCCOc3cccc4ccccc34)c(Br)c2)C(=O)NS(=O)(=O)c2ccc(Cl)c([N+](=O)[O-])c2)cc1
Ki [1]: 970 nM

Cc1cc(OCCCCOc2ccc(C[C@H](NC(=O)OC(C)(C)C)C(=O)NS(=O)(=O)c3ccc(NCCCc4ccccc4)c([N+](=O)[O-])c3)cc2)cc(C)c1Cl
Ki [1]: 260 nM | inhibition [2]: > 50% | Ki [3]: 1200 nM | IC50 [4]: 9700 nM | IC50 (HepG2 [5]): 11000 nM | IC50 (RPMI-8226): 8610 nM | IC50 (Jurkat): 21200 nM | IC50 (MOLT-4): 19700 nM | IC50 (PC-3): 9710 nM | IC50 (NCI-H1299): 22900 nM

CC(C)(C)OC(=O)N[C@@H](Cc1ccc(OCCOc2cccc3ccccc23)cc1)C(=O)NS(=O)(=O)c1ccc(NCCCc2ccccc2)c([N+](=O)[O-])c1
Ki [1]: 1100 nM

Cc1ccc(CC(=O)N[C@@H](Cc2ccc(OCCOc3ccccc3)cc2)C(=O)NS(=O)(=O)c2ccc(Cl)c([N+](=O)[O-])c2)cc1
Ki [1]: 8500 nM

CC(C)(C)OC(=O)N[C@@H](Cc1cc(I)c(OCCOc2cccc3ccccc23)c(I)c1)C(=O)NS(=O)(=O)c1ccc(Cl)c([N+](=O)[O-])c1
Ki [1]: 1400 nM

Cc1ccc(CC(=O)N[C@@H](Cc2ccc(OCCOc3cc(C)c(Cl)c(C)c3)cc2)C(=O)NS(=O)(=O)c2ccc(Cl)c([N+](=O)[O-])c2)cc1
Ki [1]: 480 nM

Cc1ccc(C(=O)N[C@@H](Cc2ccc(OCCOc3cccc4ccccc34)cc2)C(=O)NS(=O)(=O)c2ccc(Cl)c([N+](=O)[O-])c2)cc1
Ki [1]: 710 nM
